# From patent US8481576B2 (Abbott GmbH & Co. KG, priority 2004, dated 2013)
# Counter-ions that a name gives are not always drawn.
# Target: T1, h5-HT5A receptor (Homo sapiens, UniProt P47898)
# T1 construct: expressed in transfected cells; host or cells: HEK293
# Test: [3H]5-CT binding assay h5-HT5A
# Settings: membranes from HEK293 cells expressing h5-HT5A, 2.5 nM [3H]5-CT; read-out: Binding affinity 5-HT5A (Ki)
# Outline: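 Membranes from HEK293 cells stably expressing h5-HT5A incubated with 2.5 nM [3H]5-CT and compound in 100 mM Tris-HCl pH 7.7, 1 mM EDTA, 75 min at 30° C. Nonspecific binding with 10 μM methiothepine; filtration and scintillation counting give Ki or IC50.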
# T1 sequence (P47898 whole entry): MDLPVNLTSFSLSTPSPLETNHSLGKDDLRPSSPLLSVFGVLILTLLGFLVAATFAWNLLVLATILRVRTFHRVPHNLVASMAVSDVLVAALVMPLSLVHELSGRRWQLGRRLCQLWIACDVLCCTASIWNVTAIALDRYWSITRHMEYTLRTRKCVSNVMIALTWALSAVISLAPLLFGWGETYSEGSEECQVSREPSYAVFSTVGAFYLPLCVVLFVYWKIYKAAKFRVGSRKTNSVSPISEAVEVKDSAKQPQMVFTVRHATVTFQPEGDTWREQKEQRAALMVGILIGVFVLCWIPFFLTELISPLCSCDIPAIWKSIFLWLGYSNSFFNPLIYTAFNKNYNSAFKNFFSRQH
row,Molecule,Ki [µM]
1,"COc1ccccc1CNC(=N)Nc1nc(N2CCCCC2)cs1 [Example 166, 1-[2-({imino[(2-methoxybenzyl)amino]methyl}amino)-1,3-thiazole-4(5H)-ylidene]piperidinium chloride]",> 0.5
2,"COc1cccc(OC)c1CNC(=N)Nc1n[nH]cc1-c1ccccc1 [Example 218, N-(2,6-dimethoxybenzyl)-N′-(4-phenyl-1H-pyrazole-3-yl)guanidine]",> 0.5
3,"COc1ccccc1CNC(=N)Nc1n[nH]cc1-c1ccccc1 [Example 217, N-(2-methoxybenzyl)-N′-(4-phenyl-1H-pyrazole-3-yl)guanidine]",> 0.5
4,"COc1ccccc1CNC(=N)Nc1nc(-c2ccc3c(c2)OCO3)cs1 [Example 101, N-[4-(1,3-benzodioxol-5-yl)-1,3-thiazole-2-yl]-N′-(2-methoxybenzyl)guanidine]",0.05 to 0.5
5,"COc1ccccc1CNC(=N)Nc1nc2ccccc2s1 [Example 28, N-1,3-benzothiazole-2-yl-N′-(2-methoxybenzyl)guanidine (2E)-But-2-endioate]",0.05 to 0.5
6,"COc1ccccc1CN=C(N)Nc1nc(-c2ccccc2)ns1 [Example 106, N″-(2-methoxybenzyl)-N-(3-phenyl-1,2,4-thiadiazole-5-yl)guanidine (2E)-But-2-endioate]",> 0.5
7,"COc1ccccc1CNC(=N)Nc1nc(-c2ccc(NS(C)(=O)=O)cc2)cs1 [Example 104, N-{4-[2-({imino[(2-methoxybenzyl)amino]methyl}amino)-1,3-thiazole-4-yl]phenyl}methanesulfonamide]",> 0.5
8,"COc1ccccc1CNC(=N)Nc1nc(C(F)(F)F)cs1 [Example 52, N-(2-methoxybenzyl)-N′-[4-(trifluoromethyl)-1,3-thiazole-2-yl]guanidine (2E)-But-2-endioate]",> 0.5
9,"N-4H-chromeno[4,3-d][1,3]thiazole-2-yl-N′-(2,6-dimethoxybenzyl)guanidine [Example 222]",< 0.05
10,"COc1cccc(C)c1CNC(=N)Nc1cc(C(C)(C)C)[nH]n1 [Example 216, N-(5-tert-butyl-1H-pyrazole-3-yl)-N′-(2-methoxy-6-methylbenzyl)guanidine]",< 0.05
11,"COc1cccc(OC)c1CNC(=N)Nc1nc2c(s1)Cc1ccccc1-2 [Example 80, N-(2,6-dimethoxybenzyl)-N′-8H-indeno[1,2-d][1,3]thiazole-2-ylguanidine hydrobromide]",< 0.05
12,"COc1ccccc1CNC(=N)Nc1nc2ccccc2n1C [Example 92, N-(2-methoxybenzyl)-N′-(1-methyl-1H-benzimidazole-2-yl)guanidine]",0.05 to 0.5
13,"CCOC(=O)c1csc(NC(=N)NCc2c(OC)cccc2OC)n1 [Example 192, Ethyl 2-{[[(2,6-dimethoxybenzyl)amino](imino)methyl]amino}-1,3-thiazole-4-carboxylate acetate]",< 0.05
14,"COc1cccc(Cl)c1CNC(=N)Nc1nc(-c2ccc(Cl)cn2)cs1 [Example 134, N-(2-chloro-6-methoxybenzyl)-N′-[4-(5-chloropyridine-2-yl)-1,3-thiazole-2-yl]guanidine]",0.05 to 0.5
15,"COc1ccccc1CNC(=N)Nc1ccsc1 [Example 30, N-(2-methoxy-benzyl)-N′-thiophene-3-yl-guanidine acetate]",0.05 to 0.5
16,"COc1cccc(OC)c1CNC(=N)Nc1nc(-c2cc3ccccc3o2)cs1 [Example 67, N-[4-(1-benzofuran-2-yl)-1,3-thiazole-2-yl]-N′-(2,6-dimethoxybenzyl)guanidine hydrobromide]",< 0.05
17,"COc1ccccc1CNC(=N)Nc1ccn(C)n1 [Example 214, N-(2-methoxybenzyl)-N′-(1-methyl-1H-pyrazole-3-yl)guanidine]",< 0.05
18,"COc1cccc(OC)c1CNC(=N)Nc1cc(-c2ccc(C)cc2)[nH]n1 [Example 207, N-(2,6-dimethoxybenzyl)-N′-[5-(4-methylphenyl)-1H-pyrazole-3-yl]guanidine]",< 0.05
19,"COc1ccc(F)cc1CNC(=N)Nc1nc(-c2ccccc2)cs1 [Example 129, N-(5-fluoro-2-methoxybenzyl)-N′-(4-phenyl-1,3-thiazole-2-yl)guanidine]",0.05 to 0.5
20,"COc1cccc(Cl)c1CNC(=N)Nc1nc(-c2ccccc2)cs1 [Example 132, N-(2-chloro-6-methoxybenzyl)-N′-(4-phenyl-1,3-thiazole-2-yl)guanidine]",< 0.05
21,"COc1cccc(OC)c1CNC(=N)Nc1cc(C(C)(C)C)[nH]n1 [Example 204, N-(5-tert-butyl-1H-pyrazole-3-yl)-N′-(2,6-dimethoxybenzyl)guanidine]",< 0.05
22,"N-[4-(2-{[[(2,6-dimethoxybenzyl)amino](imino)methyl]amino}-1,3-thiazole-4-yl)phenyl]acetamide acetate [Example 79]",< 0.05
23,"COc1cccc(OC)c1CNC(=N)Nc1nnc[nH]1 [Example 189, N-(2,6-Dimethoxybenzyl)-N′-4H-1,2,4-triazole-3-ylguanidine acetate]",< 0.05
24,"COc1cccc(OC)c1CNC(=N)Nc1nc(C2CCCCC2)cs1 [Example 97, N-(4-cyclohexyl-1,3-thiazole-2-yl)-N′-(2,6-dimethoxybenzyl)guanidine]",< 0.05
25,"COc1cccc(F)c1CNC(=N)Nc1nc(-c2ccccc2)cs1 [Example 59, N-(2-fluoro-6-methoxybenzyl)-N′-(4-phenyl-1,3-thiazole-2-yl)guanidine]",< 0.05
26,"COc1ccccc1CNC(=N)Nc1nc(-c2cccc(F)c2)cs1 [Example 99, N-[4-(3-fluorophenyl)-1,3-thiazole-2-yl]-N′-(2-methoxybenzyl)guanidine]",0.05 to 0.5
27,"COc1cccc(F)c1CNC(=N)Nc1cc(C(C)(C)C)[nH]n1 [Example 210, N-(5-tert-butyl-1H-pyrazole-3-yl)-N′-(2-fluoro-6-methoxybenzyl)guanidine]",< 0.05

# Results, then the molecule that gave them:
row,Ki [µM],Molecule
1,< 0.05,"COc1ccccc1CNC(=N)Nc1nc(-c2ccncc2)cs1 [Example 46, N-(2-methoxybenzyl)-N′-(4-pyridine-4-yl-1,3-thiazole-2-yl)guanidine]"
2,< 0.05,"COc1cccc(OC)c1CNC(=N)Nc1nc(-c2ccc(F)c(F)c2)cs1 [Example 87, N-[4-(3,4-difluorophenyl)-1,3-thiazole-2-yl]-N′-(2,6-dimethoxybenzyl)guanidine hydrobromide]"
3,< 0.05,"COc1cccc(OC)c1CNC(=N)Nc1nc(C2CCCN2C(C)=O)cs1 (stereo not shown) [Example 148, N-[4-(1-acetylpyrrolidine-2-yl)-1,3-thiazole-2-yl]-N′-(2,6-dimethoxybenzyl)guanidine]"
4,< 0.05,"COc1cccc(OC)c1CNC(=N)Nc1nc(-c2ccccc2Cl)cs1 [Example 44, N-[4-(2-chlorophenyl)-1,3-thiazole-2-yl]-N′-(2,6-dimethoxybenzyl)guanidine]"
5,< 0.05,"COc1ccccc1CNC(=N)Nc1ncc(C)s1 [Example 54, N-(2-methoxybenzyl)-N′-(5-methyl-1,3-thiazole-2-yl)guanidine (2E)-But-2-endioate]"
6,< 0.05,"COc1ccccc1CNC(=N)Nc1n[nH]c2ccccc12 [Example 179, N-1H-indazole-3-yl-N′-(2-methoxybenzyl)guanidine acetate]"
7,< 0.05,"COc1ccc(-c2cc(NC(=N)NCc3ccccc3OC)n[nH]2)cc1 [Example 208, N-(2-methoxybenzyl)-N′-[5-(4-methoxyphenyl)-1H-pyrazole-3-yl]guanidine]"
8,< 0.05,"COc1cccc(OC)c1CNC(=N)Nc1nc(C(C)C)cs1 [Example 131, N-(2,6-dimethoxybenzyl)-N′-(4-isopropyl-1,3-thiazole-2-yl)guanidine]"
9,< 0.05,"COc1cccc(OC)c1CNC(=N)Nc1ccn(-c2ccccc2)n1 [Example 219, N-(2,6-dimethoxybenzyl)-N′-(1-phenyl-1H-pyrazole-3-yl)guanidine]"
10,< 0.05,"COc1ccccc1CNC(=N)Nc1ccn(-c2ccccc2)n1 [Example 220, N-(2-methoxybenzyl)-N′-(1-phenyl-1H-pyrazole-3-yl)guanidine]"
11,< 0.05,"COc1ccc(-c2csc(NC(=N)NCc3c(OC)cccc3OC)n2)cc1 [Example 58, N-(2,6-dimethoxybenzyl)-N′-[4-(4-methoxyphenyl)-1,3-thiazole-2-yl]guanidine]"
12,< 0.05,"COc1cccc(C)c1CNC(=N)Nc1nc(-c2ccc(F)cc2)cs1 [Example 138, N-[4-(4-fluorophenyl)-1,3-thiazole-2-yl]-N′-(2-methoxy-6-methylbenzyl)guanidine]"
13,< 0.05,"COc1cccc(OC)c1CNC(=N)Nc1nc(-c2ccc3ccccc3c2)cs1 [Example 34, N-(2,6-dimethoxybenzyl)-N′-[4-(2-naphthyl)-1,3-thiazole-2-yl]guanidine]"
14,< 0.05,"COc1cccc(OC)c1CNC(=N)Nc1nc(CN(C)C)cs1 [Example 158, N-(2,6-Dimethoxybenzyl)-N′-{4-[(dimethylamino)methyl]-1,3-thiazole-2-yl}guanidine acetate]"
15,< 0.05,"COc1ccc(F)cc1-c1csc(NC(=N)NCc2c(OC)cccc2OC)n1 [Example 112, hydrobromide]"
16,< 0.05,"COc1cccc(OC)c1CNC(=N)Nc1nc2c(s1)CNCC2 [Example 223, N-(2,6-dimethoxybenzyl)-N′-(4,5,6,7-tetrahydro[1,3]thiazolo[5,4-c]pyridine-2-yl)guanidine]"
17,< 0.05,"COc1cccc(OC)c1CNC(=N)Nc1nc(-c2ccc(F)cc2O)cs1 [Example 142, N-(2,6-dimethoxybenzyl)-N′-[4-(4-fluoro-2-hydroxyphenyl)-1,3-thiazole-2-yl]guanidine]"
18,< 0.05,"COc1cccc(OC)c1CNC(=N)Nc1nc(-c2ccc(F)cc2)c(C)s1 [Example 118, N-(2,6-dimethoxybenzyl)-N′-[4-(4-fluorophenyl)-5-methyl-1,3-thiazole-2-yl]guanidine]"
19,< 0.05,"COc1cccc(OC)c1CNC(=N)Nc1n[nH]c2ccccc12 [Example 180, N-(2,6-dimethoxybenzyl)-N′-1H-indazole-3-ylguanidine acetate]"
